“Also recorded” adds a separate entry of the source. Read-outs that look alike come from different tables or passages of the source.

The results in this text go back to US7629364B2, “Compounds that abrogate DNA-damage-induced cell cycle G2 checkpoint and/or augment anti-cancer activity of DNA-damaging treatments” (Canbas Co., Ltd., priority 2002, dated 2009).

Data set [1] concerns Jurkat cells. The experiment in a line: G2 checkpoint abrogation in bleomycin-treated Jurkat cells (flow cytometry of DNA content). It is filed as cell-based, human. The conditions noted are these: for abrogation of bleomycin-induced accumulation of G2/M cells (% G2/M): bleomycin 40 μg/ml plus compound 0.2-50 μg/ml. The protocol: (§1) Cell culture. A human T-cell leukemia-derived cell line, Jurkat, was cultured in RPMI 1640 media (Sigma) supplemented with 10% fetal calf serum (IBL: Immuno-Biological Laboratories, Gunma, Japan) at 37° C./5% CO2. A human colon cancer-derived cell line, HCT116, was cultured in McCoy's 5A Medium Modified (Gibco BRL) and supplemented with 10% fetal calf serum at 37° C./5% CO2. Normal human peripheral blood lymphocytes were separated by Ficoll-Paque® (Pharmacia) and cultured in the presence of 0.1 μg/ml PHA and 1 μg/ml IL-2.
(§2) Cell-cycle analysis. […] Briefly, two million cells were resuspended and incubated in 300 μl Krishan's solution (0.1% Sodium citrate, 50 μg/ml PI, 20 μg/ml RNase A and 0.5% NP-40) for 1 hr at 4° C. and analyzed by flow cytometry using a FACScan™ flow cytometer (Beckton Dickinson, Mountain View, Calif.) with the CELLQuest™ program (Beckton Dickinson).
DNA of treated Jurkat cells was stained with propidium iodine, and the cell cycle status of each cell was assessed by flow cytometry.
CBDC compounds 004, 402, 403, 404, 405, 406, 407, 408, 409, 410, and 411 were tested. Cells were harvested, DNA was stained with propidium iodine, and the percentage of cells in G2/M phase (% G2/M) was determined by flow cytometry.
Activated normal T cells and leukemic T cells (Jurkat cells) were treated with agents to induce accumulation of cells at G2 or M phase, and the effect of CBDC402 on progression of cells through cell cycle checkpoints was measured. After treatments, cells were harvested, DNA was stained, and the cell cycle stage for each cell was determined by flow cytometry as described above. […] In another experiment, activated normal T cells received no treatment (control) or were treated with colchicine or a combination of […] and colchicine.
A general note: A flow cytometer gives signals particle by particle.

Data set [2] has as its system HCT116 cells. The protocol: The subG1 population was determined by staining HCT116 with Krishan's solution and analyzed by flow cytometer. The dead cells were identified on the basis of DNA content, and the percentage of cells in sub G1 (% subG1) was calculated.
Data set [3] has as its system MK-45 cells. The experiment in a line: Colony formation analysis of MK-45 cells. The format is cell-based, human. As to conditions: 14 days culture; for colony formation, combination with CPT-11: 10 μM CBDC compound plus 10 μg/ml CPT-11, 3 hours; for colony formation, CBDC compound alone: 10 μM, 3-hour treatment. The protocol:
MK-45 cells from a human gastric cancer derived cell line, were seeded in 6-well plates at 1000 cells/well. After the overnight culture, the cells were treated 10 μM of various CBDC compounds, 10 μg/ml CPT-11, or a combination of CBDC compounds and CPT-11 for three (3) hours. The CBDC compounds tested were: CBDC402, CBDC412, CBDC413, and CBDC418. The culture medium was changed and cells were cultured for 14 days, after which the colonies were fixed with methanol and stained with 0.1% crystal violet.

The subject of data set [4] is Jurkat cells. The experiment in a line: M phase checkpoint in colchicine-treated Jurkat cells (flow cytometry). It is filed as cell-based, human. As to conditions: 24 hrs. The protocol:
as §1, §2
Jurkat cells were treated with colchicine (5 ug/ml), and colchicine plus the compound CBDC402 in various concentrations (0.2, 0.39, 0.78, 1.56, 3.125, 6.25, 12.5, 25 and 50 ug/ml) for 24 hrs. DNA of treated Jurkat cells was stained with propidium iodine, and the cell cycle status of each cell was assessed by flow cytometry.

In data set [5] the test system is HCT-116 human colon carcinoma cells. The data set can be described thus: Xenograft tumor growth in SCID mice. The format is in vivo. As to conditions: HCT-116 xenograft, intraperitoneal. The protocol: Treatment was initiated when the primary tumors reached the size of 0.1 cm^3 (7 or 8 mm, designated as Day 1).
Anti-cancer agent CPT-11 (CAMPTOSAR®, Irinotecan, a topoisomerase inhibitor) and CBDC402 were administered by intraperitoneal injection in the following treatment regimens: […] at 20 mg/kg once a week; CBDC402 at 20 mg/kg twice a week; CBDC402 at 40 mg/kg twice a week; CBDC402 at 20 mg/kg twice and week plus CPT-11 at 20 mg/kg once a week; and CBDC402 at 40 mg/kg twice a week plus CPT-11 at 20 mg/kg once a week. DMSO was administered as a control treatment. Tumor sizes were measured using calipers three times a week, and the volume was calculated using the formula; […]=[width (mm)^2×length (mm)]/2. Mean tumor sizes for each treatment group (n=4) were plotted against the days of treatment.

For data set [6], the system named is Activated normal T cells. The experiment in a line: G2 checkpoint in bleomycin-treated activated normal T cells (flow cytometry). It is filed as cell-based, human. The protocol: as §1, §2
(§3) Activated normal T cells and leukemic T cells (Jurkat cells) were treated with agents to induce accumulation of cells at G2 or M phase, and the effect of CBDC402 on progression of cells through cell cycle checkpoints was measured. After treatments, cells were harvested, DNA was stained, and the cell cycle stage for each cell was determined by flow cytometry as described above. […]

For data set [7], the system named is Activated normal T cells. The experiment in a line: M phase checkpoint in colchicine-treated activated normal T cells (flow cytometry). The format is cell-based, human. As to conditions: FIG. 10c. The protocol: as §1, §2, §3

For the molecule `CC.Cc1ccc(OC(=O)c2ccc(Cl)cc2Cl)cc1` [CBDC406, 2,4-Dichloro-benzoic acid p-tolyl ester; compound with ethane], the “abrogation of bleomycin-induced accumulation of G2/M cells (% G2/M)” value (“abrogation … (% G2/M)” below) in data set [1] (Jurkat cells, 24 hrs) was “abrogated the G2 cell cycle checkpoint in bleomycin-treated Jurkat cells in a dose-dependent manner”.
As to `CC[C@@]1(O)C(=O)OCc2c1cc1n(c2=O)Cc2cc3ccccc3nc2-1` [canptothecine, camptothecin], the “cytotoxic effect (% subG1) of anti-cancer agent alone” value in data set [2] (HCT116 cells, without CBDC004) is “had a cytotoxic effect on HCT116 cells”.
Turning to `CC.Cc1ccc(OC(=O)c2ccc(Cl)c(Cl)c2)cc1` [CBDC405, 3,4-Dichloro-benzoic acid p-tolyl ester; compound with ethane], in data set [1] (Jurkat cells, 24 hrs), the “abrogation … (% G2/M)” value was “abrogated the G2 cell cycle checkpoint in bleomycin-treated Jurkat cells in a dose-dependent manner”.
For the molecule `O=C(Oc1ccc(F)cc1)c1ccc(Br)cc1` [CBDC412, 4-Bromo-benzoic acid 4-fluoro-phenyl ester], in data set [3], the “colony formation, combination with CPT-11” value is reported as “a slight suppression of colony formation above that seen with CPT-11 alone” and the “colony formation, CBDC compound alone” value is given as “a slight suppression of colony formation”.
Consider `CC.O=C(Oc1ccc(O)cc1)c1ccc(Cl)cc1` [CBDC410, 4-Chloro-benzoic acid 4-hydroxy-phenyl ester; compound with ethane], for which the “abrogation … (% G2/M)” value in data set [1] (Jurkat cells, 24 hrs) is “abrogated the G2 cell cycle checkpoint in bleomycin-treated Jurkat cells in a dose-dependent manner”.
`Cc1ccc(OC(=O)c2cc(F)c(F)c(F)c2)cc1` [CBDC403, 3,4,5-Trifluoro-benzoic acid p-toly 1 ester]: the “abrogation … (% G2/M)” value in data set [1] (Jurkat cells, 24 hrs) is on record as “abrogated the G2 cell cycle checkpoint in bleomycin-treated Jurkat cells in a dose-dependent manner”.
Regarding `Cc1ccc(OC(=O)c2ccc(Br)cc2)cc1` [CBDC402, 4-Bromo-benzoic acid p-tolyl ester], the “abrogation … (% G2/M)” value in data set [1] (Jurkat cells, 24 hrs) is listed as “abolished the bleomycin-induced accumulation of G2/M cells in a dose-dependent manner; also recorded: abrogated the G2 cell cycle checkpoint in bleomycin-treated Jurkat cells in a dose-dependent manner”. Also, the “relative G2 checkpoint abrogating activity among CBDC compounds tested (dose-response curve)” value in data set [1] (Jurkat cells, bleomycin 40 ug/ml, 24 hrs, FIG. 3) is recorded as “showed the highest activity”. Also, in data set [1] (leukemic T cells (Jurkat cells), combination of bleomycin and CBDC402, FIG. 10b), the “effect on bleomycin-induced increase of cells at G2 phase” value was “abolished the large bleomycin-induced increase of leukemic T cells (Jurkat cells) at G2 phase”. Further, the “abrogation of colchicine-induced G2/M accumulation” value in data set [4] (colchicine 5 ug/ml plus compound 0.2-50 ug/ml) is listed as “did not abrogate this G2/M accumulation at any CBDC402 concentration”. The “tumor growth, CBDC402 alone” value in data set [5] (20 or 40 mg/kg twice a week (both concentrations)) was “gave a slight reduction in tumor growth”. The “tumor growth, combination with CPT-11” value in data set [5] (CBDC402 20 or 40 mg/kg twice a week plus CPT-11 20 mg/kg once a week) is recorded as “significantly reduced or inhibited tumor growth”. In data set [3], the “colony formation, combination with CPT-11” value is “almost complete suppression of colony formation” and the “colony formation, CBDC compound alone” value is “significant suppression of colony formation”. Also, in data set [6] (combination of bleomycin and CBDC402, FIG. 10a), the “effect on bleomycin-induced increase of cells at G2 phase” value is listed as “abolished the bleomycin-induced increase of activated normal T cells at G2 phase”. In addition, the “effect on colchicine-induced increase of cells at M phase” value in data set [7] (combination with colchicine) is listed as “did not affect the colchicine-induced increase of activated normal T cells at M phase”.
On to `CC.Cc1ccc(OC(=O)c2c(F)c(F)c(F)c(F)c2F)cc1` [CBDC408, 2,3,4,5,6-Pentafluoro-benzoic acid p-tolyl ester; compound with ethane], for which the “abrogation … (% G2/M)” value in data set [1] (Jurkat cells, 24 hrs) is on record as “abrogated the G2 cell cycle checkpoint in bleomycin-treated Jurkat cells in a dose-dependent manner”.
On the same count and under the same terms, in the case of `CC.Cc1ccc(OC(=O)c2ccc(F)cc2)cc1` [CBDC407, 4-Fluoro-benzoic acid p-tolyl ester; compound with ethane] it was “abrogated the G2 cell cycle checkpoint in bleomycin-treated Jurkat cells in a dose-dependent manner”; in that of `CC.O=C(Oc1ccc(O)cc1)c1ccc(F)cc1` [CBDC411, 4-Fluoro-benzoic acid 4-hydroxy-phenyl ester; compound with ethane], “abrogated the G2 cell cycle checkpoint in bleomycin-treated Jurkat cells in a dose-dependent manner”.
As for bleomycin [reference compound], in data set [1] (Jurkat cells, bleomycin 40 μg/ml, 24 hrs), the “accumulation of cells in G2/M phase by agent alone” value was “induced an accumulation of cells in cell cycle G2/M phase”. The “accumulation of cells at G2 phase by bleomycin alone” value in data set [1] (leukemic T cells (Jurkat cells), FIG. 10b) was “caused accumulation of a major population of cells at G2 phase”; in data set [6] (FIG. 10a), “caused accumulation of a minor population of cells at G2 phase”.
Regarding `O=C(Oc1ccc(C(F)(F)F)cc1)c1ccc(Br)cc1` [CBDC413, 4-Bromo-benzoic acid 4-trifluoromethyl-phenyl ester], in data set [3], the “colony formation, CBDC compound alone” value was “did not have an appreciable effect on colony formation”.
As to `COc1cc2c(c(OC)c1OC)-c1ccc(OC)c(=O)cc1[C@@H](NC(C)=O)CC2` [colchicine, reference compound], the “accumulation of cells in G2/M phase by agent alone” value in data set [4] (colchicine 5 ug/ml) is on record as “induced an accumulation of cells in G2/M phase cells”. Moreover, in data set [7], the “accumulation of cells in M phase by colchicine alone” value was “caused an accumulation of cells in M phase”.
Consider `Cc1ccc(OC(=O)c2ccc(Br)cc2)cn1` [CBDC418, 4-Bromo-benzoic acid 6-methyl-pyridin-3-yl ester], for which the “colony formation, CBDC compound alone” value in data set [3] is “did not have an appreciable effect on colony formation”.
For the molecule `CCc1c2c(nc3ccc(OC(=O)N4CCC(N5CCCCC5)CC4)cc13)-c1cc3c(c(=O)n1C2)COC(=O)[C@]3(O)CC` [CPT-11, Irinotecan, reference compound], the “tumor growth, CPT-11 alone” value in data set [5] (20 mg/kg once a week) was “reduced tumor growth”. Also, the “colony formation, CPT-11 alone” value in data set [3] (10 μg/ml, 3 hours) is given as “significant suppression of colony formation”.
`CC.Cc1ccc(OC(=O)c2ccc(Cl)cc2)cc1C` [CBDC409, 4-Chloro-benzoic acid 3,4-dimethyl-phenyl ester; compound with ethane]: the “abrogation … (% G2/M)” value in data set [1] (Jurkat cells, 24 hrs) is reported as “abrogated the G2 cell cycle checkpoint in bleomycin-treated Jurkat cells in a dose-dependent manner”.
Consider `COc1cccc2c1C(=O)c1c(O)c3c(c(O)c1C2=O)C[C@@](O)(C(=O)CO)C[C@@H]3O[C@H]1C[C@H](N)[C@H](O)[C@H](C)O1` [adriamycine, adriamycin], for which the “cytotoxic effect (% subG1) of anti-cancer agent alone” value in data set [2] is “had a cytotoxic effect on HCT116 cells”.
Take `CC.O=C(Oc1ccc(Br)cc1)c1ccc(F)cc1` [CBDC404, 4-Fluoro-benzoic acid 4-bromo-pheny 1 ester; compound with ethane]: the “abrogation … (% G2/M)” value in data set [1] (Jurkat cells, 24 hrs) was “abrogated the G2 cell cycle checkpoint in bleomycin-treated Jurkat cells in a dose-dependent manner”.
